Data on six compounds can be found in patent US12252524B2, “GIP/GLP1 co-agonist compounds” (Eli Lilly and Company, priority 2018, dated 2025).

Numbered stars: 1 amine (or outer) side, 2 acyl side, 3 side chain; on linkers, the order of the positions; unused ones are H or OH. Square brackets hold non-standard residues; d marks the D form. Side chains are listed from the residue outwards. Peptide text beside a SMILES is read from it. * marks the point of attachment. Ala(1H-tetrazol-5-yl) = N[C@@H](Cc1nnn[nH]1)C(=O)O; C20 diacid = O=C(O)CCCCCCCCCCCCCCCCCCC(=O)*; αMePhe(2-F) = C[C@](N)(Cc1ccccc1F)C(=O)O; γGlu = O=C(O)[C@H](CCC(=O)[*:2])N[*:1]; αMeF = C[C@](N)(Cc1ccccc1)C(=O)O; 2Pal = N[C@@H](Cc1ccccn1)C(=O)O; αMeL = CC(C)C[C@](C)(N)C(=O)O; AEEA = NCCOCCOCC(=O)O; Aib = CC(C)(N)C(=O)O

The target of test [1] is T1, gastric inhibitory peptide receptor (GIPR) (Homo sapiens, UniProt P48546).
T1 sequence (P48546 22-466): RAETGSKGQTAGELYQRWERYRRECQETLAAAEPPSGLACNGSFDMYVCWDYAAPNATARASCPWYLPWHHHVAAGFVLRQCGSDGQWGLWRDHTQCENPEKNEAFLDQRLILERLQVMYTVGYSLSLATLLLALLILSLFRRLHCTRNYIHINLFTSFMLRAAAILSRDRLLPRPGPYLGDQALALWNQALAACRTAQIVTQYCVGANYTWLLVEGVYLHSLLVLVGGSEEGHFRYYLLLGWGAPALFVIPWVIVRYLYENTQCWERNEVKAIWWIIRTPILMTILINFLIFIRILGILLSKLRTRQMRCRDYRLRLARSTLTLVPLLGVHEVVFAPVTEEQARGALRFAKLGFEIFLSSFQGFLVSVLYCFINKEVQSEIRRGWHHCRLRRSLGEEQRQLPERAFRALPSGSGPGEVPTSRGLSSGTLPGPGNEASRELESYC
The test can be described thus: cAMP pharmacological functional assay in presence of casein, hGIPR. It is filed as cell-based. The note with it: HEK293 cells expressing hGIPR, 0.1% Casein, geometric mean; read-out: hGIPR cAMP Rel EC50 nM (SEM, n).

Test [2] deals with human GLP-1 receptor (GLP-1R) (Homo sapiens, UniProt P43220). Briefly: cAMP pharmacological functional assay in presence of casein, hGLP-1R. It is filed as cell-based. To be noted: HEK293 cells expressing hGLP-1R, 0.1% Casein, geometric mean; read-out: hGLP1R cAMP Rel EC50 nM (SEM, n).
Sequence of human GLP-1 receptor (GLP-1R) (P43220 24-463): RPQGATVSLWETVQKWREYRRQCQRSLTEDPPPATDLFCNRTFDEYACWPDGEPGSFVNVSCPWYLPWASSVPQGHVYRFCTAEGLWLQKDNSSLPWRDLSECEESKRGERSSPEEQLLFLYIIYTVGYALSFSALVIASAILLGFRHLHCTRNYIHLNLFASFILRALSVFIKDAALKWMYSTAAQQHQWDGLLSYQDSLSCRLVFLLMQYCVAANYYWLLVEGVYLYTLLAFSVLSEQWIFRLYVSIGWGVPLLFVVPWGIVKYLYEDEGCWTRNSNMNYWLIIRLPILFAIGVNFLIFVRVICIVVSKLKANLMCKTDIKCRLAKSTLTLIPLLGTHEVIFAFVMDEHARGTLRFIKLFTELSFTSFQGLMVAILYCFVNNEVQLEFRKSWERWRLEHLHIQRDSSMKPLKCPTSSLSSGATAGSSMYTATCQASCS

By EC50 is commonly meant the concentration needed to bring the measured effect to its halfway point. For the compound `CC[C@H](C)[C@H](NC(=O)[C@H](CC(C)C)NC(=O)[C@H](Cc1ccc(O)cc1)NC(=O)[C@H](CCC(=O)O)NC(=O)[C@@H](NC(=O)[C@H](Cc1ccccc1)NC(=O)[C@@H](NC(=O)C(C)(C)NC(=O)[C@H](CCC(N)=O)NC(=O)[C@H](C)NC(=O)[C@H](CCCCNC(=O)COCCOCCNC(=O)COCCOCCNC(=O)CC[C@H](NC(=O)CCCCCCCCCCCCCCCCCCC(=O)O)C(=O)O)NC(=O)[C@H](CCCCN)NC(=O)[C@H](CC(=O)O)NC(=O)[C@H](CC(C)C)NC(=O)[C@](C)(CC(C)C)NC(=O)[C@@H](NC(=O)[C@H](CO)NC(=O)[C@H](Cc1ccc(O)cc1)NC(=O)[C@H](CC(=O)O)NC(=O)[C@H](CO)NC(=O)[C@@H](NC(=O)[C@](C)(Cc1ccccc1)NC(=O)[C@@H](NC(=O)CNC(=O)[C@H](CCC(=O)O)NC(=O)C(C)(C)NC(=O)[C@@H](N)Cc1ccc(O)cc1)[C@@H](C)O)[C@@H](C)O)[C@@H](C)CC)[C@@H](C)CC)[C@@H](C)CC)C(=O)N[C@@H](CCC(=O)O)C(=O)NCC(=O)NCC(=O)N1CCC[C@H]1C(=O)N[C@@H](CO)C(=O)N[C@@H](CO)C(=O)NCC(=O)N[C@@H](C)C(=O)N1CCC[C@H]1C(=O)N1CCC[C@H]1C(=O)N1CCC[C@H]1C(=O)N[C@@H](CO)C(N)=O` [Example 141] (H-Y[Aib]EGT[αMeF]TSDYSI[αMeL]LDKK([AEEA-AEEA-γGlu-C20 diacid])AQ[Aib]IFIEYLIEGGPSSGAPPPS-NH2; N-terminus assumed), the EC50 in test [1] came out at 0.2 nM; in test [2], 0.0975 nM.
Consider `CC[C@H](C)[C@H](NC(=O)[C@H](CC(C)C)NC(=O)[C@H](Cc1ccc(O)cc1)NC(=O)[C@H](CCC(N)=O)NC(=O)[C@@H](NC(=O)[C@H](Cc1ccccc1)NC(=O)[C@H](CCC(=O)O)NC(=O)C(C)(C)NC(=O)[C@H](CCC(N)=O)NC(=O)[C@H](C)NC(=O)[C@H](CCCCNC(=O)COCCOCCNC(=O)COCCOCCNC(=O)CC[C@H](NC(=O)CCCCCCCCCCCCCCCCCCC(=O)O)C(=O)O)NC(=O)[C@H](CCC(=O)O)NC(=O)[C@H](CC(=O)O)NC(=O)[C@H](CC(C)C)NC(=O)[C@](C)(CC(C)C)NC(=O)[C@@H](NC(=O)[C@H](CO)NC(=O)[C@H](Cc1ccc(O)cc1)NC(=O)[C@H](CC(=O)O)NC(=O)[C@H](CO)NC(=O)[C@@H](NC(=O)[C@](C)(Cc1ccccc1F)NC(=O)[C@@H](NC(=O)CNC(=O)[C@H](CCC(=O)O)NC(=O)C(C)(C)NC(=O)[C@@H](N)Cc1ccc(O)cc1)[C@@H](C)O)[C@@H](C)O)[C@@H](C)CC)[C@@H](C)CC)C(=O)N[C@@H](CCC(=O)O)C(=O)NCC(=O)NCC(=O)N1CCC[C@H]1C(=O)N[C@@H](CO)C(=O)N[C@@H](CO)C(=O)NCC(=O)N[C@@H](C)C(=O)N1CCC[C@H]1C(=O)N1CCC[C@H]1C(=O)N1CCC[C@H]1C(=O)N[C@@H](CO)C(N)=O` [Example 146] (H-Y[Aib]EGT[αMePhe(2-F)]TSDYSI[αMeL]LDEK([AEEA-AEEA-γGlu-C20 diacid])AQ[Aib]EFIQYLIEGGPSSGAPPPS-NH2), for which the figures for the EC50 in test [1] and in test [2] were 0.0583 nM and 0.0604 nM, respectively.
For the compound `CC[C@H](C)[C@H](NC(=O)[C@H](Cc1ccccc1)NC(=O)[C@H](CCC(=O)O)NC(=O)C(C)(C)NC(=O)[C@H](CCC(N)=O)NC(=O)[C@H](C)NC(=O)[C@H](CCCCNC(=O)COCCOCCNC(=O)COCCOCCNC(=O)CC[C@H](NC(=O)CCCCCCCCCCCCCCCCCCC(=O)O)C(=O)O)NC(=O)[C@H](CCC(=O)O)NC(=O)[C@H](CC(=O)O)NC(=O)[C@H](CC(C)C)NC(=O)[C@](C)(CC(C)C)NC(=O)[C@@H](NC(=O)[C@H](CO)NC(=O)[C@H](Cc1ccc(O)cc1)NC(=O)[C@H](CC(=O)O)NC(=O)[C@H](CO)NC(=O)[C@@H](NC(=O)[C@](C)(Cc1ccccc1F)NC(=O)[C@@H](NC(=O)CNC(=O)[C@H](CCC(=O)O)NC(=O)C(C)(C)NC(=O)[C@@H](N)Cc1ccc(O)cc1)[C@@H](C)O)[C@@H](C)O)[C@@H](C)CC)C(=O)N[C@@H](C)C(=O)N[C@@H](Cc1ccc(O)cc1)C(=O)N[C@@H](CC(C)C)C(=O)N[C@H](C(=O)N[C@@H](CCC(=O)O)C(=O)NCC(=O)NCC(=O)N1CCC[C@H]1C(=O)N[C@@H](CO)C(=O)N[C@@H](CO)C(=O)NCC(=O)N[C@@H](C)C(=O)N1CCC[C@H]1C(=O)N1CCC[C@H]1C(=O)N1CCC[C@H]1C(=O)N[C@@H](CO)C(N)=O)[C@@H](C)CC` [Example 148] (H-Y[Aib]EGT[αMePhe(2-F)]TSDYSI[αMeL]LDEK([AEEA-AEEA-γGlu-C20 diacid])AQ[Aib]EFIAYLIEGGPSSGAPPPS-NH2), the half-maximal effective concentration (EC50) in test [1] is 0.043 nM; in test [2] it was 0.0626 nM.
For `CC[C@H](C)[C@H](NC(=O)[C@H](CC(C)C)NC(=O)[C@H](Cc1ccc(O)cc1)NC(=O)[C@@H]1CCCN1C(=O)[C@@H](NC(=O)[C@H](Cc1ccccc1)NC(=O)[C@H](CCC(=O)O)NC(=O)C(C)(C)NC(=O)[C@H](CCC(N)=O)NC(=O)[C@H](C)NC(=O)[C@H](CCCCNC(=O)COCCOCCNC(=O)COCCOCCNC(=O)CC[C@H](NC(=O)CCCCCCCCCCCCCCCCCCC(=O)O)C(=O)O)NC(=O)[C@H](CCC(=O)O)NC(=O)[C@H](CC(=O)O)NC(=O)[C@H](CC(C)C)NC(=O)[C@](C)(CC(C)C)NC(=O)[C@@H](NC(=O)[C@H](CO)NC(=O)[C@H](Cc1ccc(O)cc1)NC(=O)[C@H](CC(=O)O)NC(=O)[C@H](CO)NC(=O)[C@@H](NC(=O)[C@](C)(Cc1ccccc1F)NC(=O)[C@@H](NC(=O)CNC(=O)[C@H](CCC(=O)O)NC(=O)C(C)(C)NC(=O)[C@@H](N)Cc1ccc(O)cc1)[C@@H](C)O)[C@@H](C)O)[C@@H](C)CC)[C@@H](C)CC)C(=O)N[C@@H](CCC(=O)O)C(=O)NCC(=O)NCC(=O)N1CCC[C@H]1C(=O)N[C@@H](CO)C(=O)N[C@@H](CO)C(=O)NCC(=O)N[C@@H](C)C(=O)N1CCC[C@H]1C(=O)N1CCC[C@H]1C(=O)N1CCC[C@H]1C(=O)N[C@@H](CO)C(N)=O` [Example 151] (H-Y[Aib]EGT[αMePhe(2-F)]TSDYSI[αMeL]LDEK([AEEA-AEEA-γGlu-C20 diacid])AQ[Aib]EFIPYLIEGGPSSGAPPPS-NH2; N-terminus assumed), in that order: 0.41 nM and 1.6 nM.
Taken in the same sequence, the figures for `CC[C@H](C)[C@H](NC(=O)[C@H](CC(C)C)NC(=O)[C@H](Cc1ccc(O)cc1)NC(=O)[C@H](CCC(=O)O)NC(=O)[C@@H](NC(=O)[C@H](Cc1ccccc1)NC(=O)[C@H](CCC(=O)O)NC(=O)C(C)(C)NC(=O)[C@H](CCC(N)=O)NC(=O)[C@H](C)NC(=O)[C@H](CCCCNC(=O)COCCOCCNC(=O)COCCOCCNC(=O)CC[C@H](NC(=O)CCCCCCCCCCCCCCCCCCC(=O)O)C(=O)O)NC(=O)[C@H](CCC(=O)O)NC(=O)[C@H](CC(=O)O)NC(=O)[C@H](CC(C)C)NC(=O)[C@](C)(CC(C)C)NC(=O)[C@@H](NC(=O)[C@H](CO)NC(=O)[C@H](Cc1nn[nH]n1)NC(=O)[C@H](CC(=O)O)NC(=O)[C@H](CO)NC(=O)[C@@H](NC(=O)[C@](C)(Cc1ccccc1F)NC(=O)[C@@H](NC(=O)CNC(=O)[C@H](CCC(=O)O)NC(=O)C(C)(C)NC(=O)[C@@H](N)Cc1ccc(O)cc1)[C@@H](C)O)[C@@H](C)O)[C@@H](C)CC)[C@@H](C)CC)C(=O)N[C@@H](CCC(=O)O)C(=O)NCC(=O)NCC(=O)N1CCC[C@H]1C(=O)N[C@@H](CO)C(=O)N[C@@H](CO)C(=O)NCC(=O)N[C@@H](C)C(=O)N1CCC[C@H]1C(=O)N1CCC[C@H]1C(=O)N1CCC[C@H]1C(=O)N[C@@H](CO)C(N)=O` [Example 155] (H-Y[Aib]EGT[αMePhe(2-F)]TSD[Ala(1H-tetrazol-5-yl)]SI[αMeL]LDEK([AEEA-AEEA-γGlu-C20 diacid])AQ[Aib]EFIEYLIEGGPSSGAPPPS-NH2; N-terminus assumed) were 0.266 nM and 0.495 nM.
Taken in the same sequence, the figures for `CC[C@H](C)[C@H](NC(=O)[C@H](CC(C)C)NC(=O)[C@H](Cc1ccc(O)cc1)NC(=O)[C@H](CCC(=O)O)NC(=O)[C@@H](NC(=O)[C@H](Cc1ccccc1)NC(=O)[C@H](CCC(=O)O)NC(=O)C(C)(C)NC(=O)[C@H](CCC(N)=O)NC(=O)[C@H](C)NC(=O)[C@H](CCCCNC(=O)COCCOCCNC(=O)COCCOCCNC(=O)CC[C@H](NC(=O)CCCCCCCCCCCCCCCCCCC(=O)O)C(=O)O)NC(=O)[C@H](CCC(=O)O)NC(=O)[C@H](CC(=O)O)NC(=O)[C@H](CC(C)C)NC(=O)[C@](C)(CC(C)C)NC(=O)[C@@H](NC(=O)[C@H](CO)NC(=O)[C@H](Cc1ccccn1)NC(=O)[C@H](CC(=O)O)NC(=O)[C@H](CO)NC(=O)[C@@H](NC(=O)[C@](C)(Cc1ccccc1F)NC(=O)[C@@H](NC(=O)CNC(=O)[C@H](CCC(=O)O)NC(=O)C(C)(C)NC(=O)[C@@H](N)Cc1ccc(O)cc1)[C@@H](C)O)[C@@H](C)O)[C@@H](C)CC)[C@@H](C)CC)C(=O)N[C@@H](CCC(=O)O)C(=O)NCC(=O)NCC(=O)N1CCC[C@H]1C(=O)N[C@@H](CO)C(=O)N[C@@H](CO)C(=O)NCC(=O)N[C@@H](C)C(=O)N1CCC[C@H]1C(=O)N1CCC[C@H]1C(=O)N1CCC[C@H]1C(=O)N[C@@H](CO)C(N)=O` [Example 156] (H-Y[Aib]EGT[αMePhe(2-F)]TSD[2Pal]SI[αMeL]LDEK([AEEA-AEEA-γGlu-C20 diacid])AQ[Aib]EFIEYLIEGGPSSGAPPPS-NH2) were > 30 nM and 0.638 nM.
